Experimental data reported in patent publication US9364405B2, “Tyrosinase inhibitors” (Avon Products, Inc., priority 2013, dated 2016).

System: Mushroom tyrosinase
Test: Mushroom tyrosinase assay
Format: biochemical
Settings: L-Tyrosine substrate, 25° C., 30 min
Method: Mushroom tyrosinase and L-Tyrosine were obtained from Sigma-Aldrich, Inc. (St. Louis, Mo.). The enzyme activity was measured in buffer containing 100 mM phosphate buffer pH 6.8, 5% absolute ethanol, 2 micrograms/milliliter mushroom tyrosinase, and 0.2 mg/ml L-Tyrosine. The reaction (conversion of L-Tyrosine to DOPAchrome) was conducted in triplicates at 25° C. for 30 min, and absorbance was then measured at 492 nm. Kojic Acid was used as a positive control inhibitor in these assays. Percent change in tyrosinase activity relative to vehicle control was calculated.

[1] = test compound concentration 0.0010%

Tyrosinase Inhibition (percent change in tyrosinase activity compared to DMSO vehicle control) [1] | Tyrosinase Inhibition (percent change in tyrosinase activity compared to DMSO vehicle control) (test compound concentration 0.0100%) | SMILES
−75% | −59% | CN1CCN(c2nc(-c3ccc(O)cc3O)cs2)CC1 [AV5370]
−46% | – | Cc1cc(C)cc(Nc2nc(-c3ccc(O)cc3O)cs2)c1 [AV4662]
